Data reported in the supplement of paper PMC6045584.
± gives the standard deviation of the averaged measurements.

How the values were obtained:
AFATINIB = compound: CN(C)C/C=C/C(=O)Nc1cc2c(Nc3ccc(F)c(Cl)c3)ncnc2cc1O[C@H]1CCOC1 [AFATINIB]; experiment: surviving fraction relative to DMSO-only wells; higher = less growth inhibition; conditions: exposure time: 5 days
How it was run: (§1)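 Five days of continuous inhibitor exposure, at 0.5, 1, 5, 10, 50, 100, 500 and 1000 nM, followed a 24-hour period after log-phase tumour cell lines were seeded at 250–500 cells per well in 384-well plates. Surviving fraction was derived from CellTiter-Glo luminescence relative to the median of DMSO-only wells. Plates were read after 10 minutes at room temperature, and lines screened three times were kept only if replicate Pearson r >0.7 and median Z' >0.3.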

TIOGUANINE = compound: Nc1nc2[nH]cnc2c(=S)[nH]1 [TIOGUANINE]; experiment: as above; conditions: exposure time: 5 days
How it was run: as §1

| Test System | surviving fraction (AFATINIB; 0.5 nM) | surviving fraction (AFATINIB; 1 nM) | surviving fraction (AFATINIB; 5 nM) | surviving fraction (AFATINIB; 10 nM) | surviving fraction (AFATINIB; 50 nM) | surviving fraction (AFATINIB; 100 nM) | surviving fraction (AFATINIB; 500 nM) | surviving fraction (AFATINIB; 1000 nM) | surviving fraction (TIOGUANINE; 0.5 nM) | surviving fraction (TIOGUANINE; 1 nM) | surviving fraction (TIOGUANINE; 5 nM) | surviving fraction (TIOGUANINE; 10 nM) | surviving fraction (TIOGUANINE; 50 nM) | surviving fraction (TIOGUANINE; 100 nM) | surviving fraction (TIOGUANINE; 500 nM) | surviving fraction (TIOGUANINE; 1000 nM) |
| --- | --- | --- | --- | --- | --- | --- | --- | --- | --- | --- | --- | --- | --- | --- | --- | --- |
| 93VU HEADNECK | 0.895 ± 0.046 | 0.883 ± 0.053 | 0.697 ± 0.075 | 0.59 ± 0.043 | 0.469 ± 0.085 | 0.46 ± 0.049 | 0.387 ± 0.017 | 0.302 ± 0.022 | 0.831 ± 0.039 | 0.872 ± 0.088 | 1.03 ± 0.082 | 1.08 ± 0.094 | 1.06 ± 0.015 | 1.06 ± 0.11 | 0.798 ± 0.042 | 0.768 ± 0.081 |
| HCC1954 BREAST | 0.969 ± 0.079 | 0.886 ± 0.021 | 0.763 ± 0.028 | 0.56 ± 0.0078 | 0.471 ± 0.094 | 0.479 ± 0.025 | 0.266 ± 0.038 | 0.145 ± 0.011 | 0.867 ± 0.18 | 0.986 ± 0.24 | 1.08 ± 0.075 | 0.96 ± 0.1 | 0.997 ± 0.18 | 0.911 ± 0.05 | 0.969 ± 0.054 | 0.871 ± 0.051 |
| S68 BREAST | 0.958 ± 0.2 | 0.976 ± 0.33 | 0.735 ± 0.085 | 0.809 ± 0.14 | 0.656 ± 0.12 | 0.907 ± 0.14 | 0.478 ± 0.064 | 0.314 ± 0.055 | 1.2 ± 0.1 | 0.975 ± 0.046 | 0.981 ± 0.04 | 0.941 ± 0.11 | 1.1 ± 0.18 | 1.04 ± 0.097 | 1.05 ± 0.14 | 1.04 ± 0.27 |
| HCC78 LUNG | 0.943 ± 0.12 | 0.936 ± 0.17 | 0.867 ± 0.21 | 0.787 ± 0.19 | 0.64 ± 0.16 | 0.682 ± 0.13 | 0.383 ± 0.13 | 0.235 ± 0.027 | 0.726 ± 0.091 | 0.781 ± 0.21 | 0.854 ± 0.13 | 0.685 ± 0.23 | 0.866 ± 0.086 | 0.853 ± 0.059 | 0.743 ± 0.2 | 0.773 ± 0.088 |
| VCAP PROSTATE | 1.07 ± 0.14 | 1 ± 0.16 | 1.06 ± 0.093 | 1.06 ± 0.051 | 1.06 ± 0.064 | 1.03 ± 0.14 | 0.723 ± 0.14 | 0.405 ± 0.043 | 1.04 ± 0.18 | 0.99 ± 0.11 | 1.11 ± 0.13 | 1.11 ± 0.12 | 1.14 ± 0.094 | 1.08 ± 0.11 | 0.973 ± 0.082 | 1.02 ± 0.15 |
| MCF7 BREAST | 0.944 ± 0.025 | 0.905 ± 0.028 | 0.955 ± 0.017 | 0.942 ± 0.032 | 1.01 ± 0.035 | 1.08 ± 0.053 | 0.986 ± 0.073 | 0.953 ± 0.023 | 0.824 ± 0.015 | 0.804 ± 0.075 | 0.846 ± 0.032 | 0.835 ± 0.025 | 0.903 ± 0.045 | 0.875 ± 0.069 | 0.872 ± 0.054 | 0.889 ± 0.055 |
| SIHA CERVIX | 1.05 ± 0.025 | 1.06 ± 0.069 | 1.02 ± 0.022 | 1.01 ± 0.064 | 1.03 ± 0.011 | 1.07 ± 0.085 | 0.845 ± 0.019 | 0.684 ± 0.052 | 0.848 ± 0.07 | 0.858 ± 0.097 | 0.994 ± 0.044 | 0.967 ± 0.084 | 0.97 ± 0.043 | 0.987 ± 0.078 | 0.817 ± 0.029 | 0.856 ± 0.029 |
| HCC202 BREAST | 1.12 ± 0.36 | 0.943 ± 0.36 | 0.561 ± 0.2 | 0.442 ± 0.098 | 0.253 ± 0.07 | 0.191 ± 0.048 | 0.0983 ± 0.031 | 0.0747 ± 0.0055 | 1.28 ± 0.11 | 1.25 ± 0.14 | 1.32 ± 0.35 | 1.3 ± 0.28 | 1.32 ± 0.14 | 1.78 ± 0.35 | 1.2 ± 0.19 | 1.24 ± 0.067 |
| A549 LUNG | 1.02 ± 0.068 | 1.02 ± 0.053 | 0.987 ± 0.05 | 0.965 ± 0.056 | 1.03 ± 0.025 | 1.03 ± 0.019 | 1.04 ± 0.05 | 1.03 ± 0.034 | 0.946 ± 0.045 | 0.955 ± 0.025 | 0.96 ± 0.046 | 0.952 ± 0.051 | 0.976 ± 0.045 | 0.999 ± 0.064 | 1.01 ± 0.038 | 0.973 ± 0.056 |
| SAOS2 BONE | 1.15 ± 0.11 | 1.21 ± 0.067 | 1.15 ± 0.018 | 1.104 ± 0.0087 | 1.1 ± 0.013 | 1.06 ± 0.089 | 0.603 ± 0.0052 | 0.186 ± 0.034 | 1 ± 0.024 | 0.966 ± 0.031 | 1.034 ± 0.0081 | 0.937 ± 0.096 | 1.15 ± 0.014 | 1.15 ± 0.097 | 1.02 ± 0.027 | 1.01 ± 0.047 |
| SG43 HEADNECK | 1.03 ± 0.33 | 0.966 ± 0.27 | 0.362 ± 0.022 | 0.414 ± 0.18 | 0.301 ± 0.11 | 0.181 ± 0.044 | 0.182 ± 0.046 | 0.0613 ± 0.035 | 1 ± 0.073 | 0.986 ± 0.23 | 0.684 ± 0.14 | 0.988 ± 0.083 | 0.778 ± 0.18 | 0.895 ± 0.15 | 0.91 ± 0.1 | 1.11 ± 0.13 |
| JURKAT HAEMATOPOIETIC AND LYMPHOID TISSUE | 1.07 ± 0.017 | 1.08 ± 0.025 | 1.07 ± 0.025 | 1.07 ± 0.02 | 1.03 ± 0.098 | 1.05 ± 0.023 | 0.779 ± 0.014 | 0.259 ± 0.043 | 1.05 ± 0.034 | 1.07 ± 0.032 | 1.07 ± 0.04 | 1.043 ± 0.0097 | 1.02 ± 0.039 | 1.04 ± 0.018 | 1.01 ± 0.012 | 0.565 ± 0.013 |
| SCC47 HEADNECK | 1.05 ± 0.021 | 0.98 ± 0.078 | 0.88 ± 0.11 | 0.707 ± 0.037 | 0.629 ± 0.064 | 0.604 ± 0.034 | 0.546 ± 0.026 | 0.373 ± 0.014 | 0.796 ± 0.02 | 0.834 ± 0.05 | 0.969 ± 0.043 | 0.961 ± 0.061 | 0.98 ± 0.035 | 0.966 ± 0.045 | 0.854 ± 0.082 | 0.803 ± 0.039 |
| YAMATO SYNOVIAL | 1.22 ± 0.061 | 1.34 ± 0.096 | 1.32 ± 0.15 | 1.18 ± 0.0093 | 1.23 ± 0.037 | 1.27 ± 0.07 | 1.16 ± 0.035 | 0.739 ± 0.02 | 1.31 ± 0.071 | 1.21 ± 0.046 | 1.32 ± 0.052 | 1.35 ± 0.11 | 1.36 ± 0.17 | 1.37 ± 0.06 | 1.24 ± 0.092 | 1.06 ± 0.066 |
| CADOES1 SOFT TISSUE | 0.833 ± 0.033 | 0.909 ± 0.063 | 0.914 ± 0.0056 | 0.98 ± 0.011 | 0.837 ± 0.018 | 0.997 ± 0.024 | 0.931 ± 0.11 | 0.724 ± 0.051 | 0.965 ± 0.12 | 0.922 ± 0.059 | 0.93 ± 0.067 | 0.955 ± 0.045 | 0.989 ± 0.15 | 0.952 ± 0.097 | 0.842 ± 0.095 | 0.78 ± 0.048 |
| SUM44 BREAST | 1.04 ± 0.053 | 1 ± 0.054 | 1.01 ± 0.023 | 0.995 ± 0.077 | 1.07 ± 0.027 | 1.03 ± 0.022 | 0.859 ± 0.034 | 0.448 ± 0.047 | 0.946 ± 0.03 | 0.992 ± 0.046 | 1.04 ± 0.035 | 1.04 ± 0.028 | 1.03 ± 0.011 | 1.09 ± 0.086 | 0.97 ± 0.091 | 1.055 ± 0.0085 |
| MFM223 BREAST | 1.13 ± 0.076 | 1.16 ± 0.11 | 1.13 ± 0.097 | 1.13 ± 0.031 | 1.11 ± 0.086 | 1.04 ± 0.1 | 0.803 ± 0.059 | 0.365 ± 0.021 | 1.01 ± 0.13 | 0.997 ± 0.062 | 1.09 ± 0.037 | 1.041 ± 0.009 | 1.13 ± 0.031 | 1.13 ± 0.045 | 1.05 ± 0.074 | 1 ± 0.068 |
| MDAMB436 BREAST | 0.924 ± 0.014 | 0.974 ± 0.078 | 0.922 ± 0.05 | 0.905 ± 0.0097 | 0.996 ± 0.063 | 0.892 ± 0.035 | 0.763 ± 0.06 | 0.647 ± 0.029 | 0.892 ± 0.057 | 0.837 ± 0.05 | 0.864 ± 0.059 | 0.932 ± 0.028 | 1.03 ± 0.096 | 0.906 ± 0.13 | 0.921 ± 0.094 | 0.928 ± 0.065 |
| SJSA1 BONE | 1.05 ± 0.014 | 0.9563 ± 0.0055 | 1.11 ± 0.017 | 1.04 ± 0.05 | 1.15 ± 0.063 | 1.07 ± 0.023 | 0.995 ± 0.041 | 0.613 ± 0.033 | 1.05 ± 0.038 | 1.05 ± 0.092 | 1.033 ± 0.0062 | 1.01 ± 0.035 | 1.1 ± 0.041 | 1.08 ± 0.036 | 1.016 ± 0.0081 | 0.912 ± 0.019 |
| MG63 BONE | 1.02 ± 0.046 | 1.03 ± 0.023 | 1.08 ± 0.022 | 1.058 ± 0.0069 | 1.05 ± 0.059 | 1.08 ± 0.017 | 0.951 ± 0.04 | 0.831 ± 0.038 | 0.974 ± 0.035 | 0.97 ± 0.015 | 1.01 ± 0.014 | 0.991 ± 0.007 | 1.02 ± 0.026 | 1.03 ± 0.026 | 0.989 ± 0.0069 | 0.958 ± 0.03 |
| HCC70 BREAST | 1.02 ± 0.064 | 0.981 ± 0.067 | 1 ± 0.015 | 0.965 ± 0.092 | 0.967 ± 0.022 | 1.02 ± 0.093 | 0.962 ± 0.016 | 0.827 ± 0.1 | 1.05 ± 0.03 | 0.896 ± 0.043 | 1.03 ± 0.069 | 1 ± 0.013 | 1.04 ± 0.13 | 1.02 ± 0.052 | 1.04 ± 0.059 | 1.04 ± 0.1 |
